Experimental data from ChEMBL document CHEMBL1139815, “Synthesis and characterization of a pegylated derivative of 3-(1,2,3,6-tetrahydro-pyridin-4yl)-1H-indole (IDT199): a high affinity SERT ligand for conjugation to quantum dots” (Bioorg Med Chem Lett, 2007).

Biological target: Sodium-dependent serotonin transporter (Homo sapiens, UniProt P31645)
Experiment: Displacement of [3H]serotonin from human SERT expressed in HeLa cells
Type: cell-based

Sodium-dependent serotonin transporter, sequence (P31645 whole entry): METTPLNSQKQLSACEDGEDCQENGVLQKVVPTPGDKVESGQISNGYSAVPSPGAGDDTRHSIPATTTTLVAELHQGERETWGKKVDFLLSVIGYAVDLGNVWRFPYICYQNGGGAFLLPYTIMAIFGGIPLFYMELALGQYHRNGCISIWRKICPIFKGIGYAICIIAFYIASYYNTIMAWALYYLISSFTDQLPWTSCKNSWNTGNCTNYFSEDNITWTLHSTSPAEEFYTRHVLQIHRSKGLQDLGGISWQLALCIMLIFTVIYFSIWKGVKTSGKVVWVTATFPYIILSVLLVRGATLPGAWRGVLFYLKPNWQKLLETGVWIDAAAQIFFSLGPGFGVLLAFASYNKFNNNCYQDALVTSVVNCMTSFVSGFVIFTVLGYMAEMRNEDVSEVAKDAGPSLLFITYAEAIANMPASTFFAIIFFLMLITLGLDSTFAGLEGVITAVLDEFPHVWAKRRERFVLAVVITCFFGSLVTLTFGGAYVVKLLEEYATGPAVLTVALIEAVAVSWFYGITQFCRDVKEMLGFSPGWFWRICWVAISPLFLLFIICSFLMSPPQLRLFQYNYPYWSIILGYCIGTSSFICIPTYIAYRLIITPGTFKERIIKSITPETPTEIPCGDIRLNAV

Compound `NCCCCCCCCCCCN1CCC(c2c[nH]c3ccccc23)CC1` has an IC50 of 25 nM.
